# Reference: patent US9096594B2, “Kinase inhibitors and methods of use thereof” (priority 2012, dated 2015)
# Read-outs that look alike come from different tables or passages of the source.
# Columns and labels:
# GSH stability = type: physicochemical; conditions: 48 hours
# Experimental: Stability was determined in the presence of PBS pH […] and 50 μM glutathione with 0.1% DMSO. Each compound was prepared in duplicate on six separate plates and allowed to equilibrate at room temperature with a 250 rpm orbital shake for 48 hours. One plate was removed at each time point (0, 2, 4, 8, 24, and 48 hours). […] Additionally, to the remaining material at each time point, acetonitrile was added to force dissolution of compound (to test for recovery of compound). An aliquot of this was also analyzed by UPLC-MS.
# CDK2/CycA2 = CDK2/CycA2 (Homo sapiens (Human), UniProt P24941); assay: Carna Biosciences kinase assay, CDK2/CycA2; type: biochemical; conditions: read-out: % Inhibition at 10 μM, CDK2/CycA2
# Experimental: (§1) Briefly, a selection of compounds was screened against a panel of kinases at a single concentration of 10 μM. […] This was completed utilizing one of two assays depending on the kinase being examined.
# (§2) Test compounds were dissolved in and diluted with dimethylsulfoxide (DMSO) to generate a 100× sample solution. These were then diluted to 4× sample solutions in assay buffer to make the final test compound solutions. Reference compounds for assay control were prepared similarly.
# (§3) A solution of IMAP binding reagent (IMAP Screening Express kit; Molecular Devices) (60 μL) was added to each well and incubated for 30 minutes.
# (§4) A solution of termination buffer (QuickScout Screening assist MSA; Carna Biosciences) (60 μL) was added to each well. The entire reaction mixture was then applied to a LabChip3000 system (Caliper Life Science) and the product and substrate peptide peaks were separated and quantified.
# (§5) The assay utilized was identical to that of the single point inhibitory activity determination (MSA) but run in dose response. […] A solution of termination buffer (QuickScout Screening assist MSA; Carna Biosciences) (60 μL) was added to each well. The entire reaction mixture was then applied to a LabChip3000 system (Caliper Life Science) and the product and substrate peptide peaks were separated and quantified.
# [1] = mouse plasma, 5 hours
# Experimental: Plasma stability was determined at 37° C. at 5 hours in both human and mouse plasma. […] Compounds were incubated at 37° C. for 5 hours with a 250 rpm orbital shake with time points taken at 0 and 5 hours.
# [2] = Plasma protein binding (equilibrium dialysis), human plasma; type: in vitro ADME
# Experimental: Plasma protein binding was determined by equilibrium dialysis using the Rapid Equilibrium Dialysis (RED) device (Pierce Biotechnology, Rockford, Ill.) for both human and mouse plasma. Each compound was prepared in duplicate at 5 μM in plasma (0.95% acetonitrile, 0.05% DMSO) and added to one side of the membrane (200 μl) with PBS pH 7.4 added to the other side (350 μl). Compounds were incubated at 37° C. for 5 hours with a 250 rpm orbital shake.
# [3] = M (mouse)
# [4] = tested on: TCF/LEF reporter in HEK293-pBARL cells; assay: cells
# Experimental: (§6) HEK293-pBARL cells were derived from HEK293 cells and they stably expressed a firefly-luciferase reporter gene driven by a promoter containing 12 copies of TCF/LEF binding sequences. These cells were maintained in DMEM and supplemented with 10% FBS and 1% penicillin-streptomycin (Invitrogen). Reporter gene assays were conducted in anti-biotic free media. […] These cells also contained a renilla-luciferase reporter gene driven by the ubiquitous EF1α promoter as a control. HEK293-pBarl reporter cell lines were seeded into 384-well culture plates (Corning) at 6000 cells/well. 24 hours after plating, cells were treated overnight with relevant compounds and assayed using DualGlo assay kit (Promega). Luminescent intensities were read by EnVision (PerkinElmer, Waltham, Mass.). Firefly luciferase intensity is normalized by renilla luciferase intensity.
# (§7) Cells were cultured in 384 well plates to appropriate density (40 μl total plating volume). 24 hours after plating, cells were treated with 100 nl compounds. 24 hours after incubation with compounds (48 hours after plating), assay reagents were prepared by mixing Luciferase Assay solution with Luciferase substrate and Stop & Glo solution to Stop & Glo substrate (extra reagents can be aliquoted and frozen for future use and are stable for at least one freeze/thaw cycle). […] The plate was spun down and 10 minutes were allowed for signal stabilization. Luciferase signal on the Perkin Elmer EnVision using the following parameters: Distance between plate & detector (mm)=0.2; Measurement time(s)=0.1; Glow (CT2) correction factor=0. Once the initial data is secure, a volume of Stop & Glo was added equal to each well equal to the volume of Luciferase reagent added above (If 10 μl Luciferase Reagent was added, 10 μl Stop & Glo was also added). The plate was spun down and 10 minutes were allowed for signal stabilization. The plate was read on the EnVision using the same parameters detailed above.
# GSK3α [5] = biological target: T1, GSK3α (Homo sapiens (Human), UniProt P49840)
# T1 sequence (P49840 whole entry): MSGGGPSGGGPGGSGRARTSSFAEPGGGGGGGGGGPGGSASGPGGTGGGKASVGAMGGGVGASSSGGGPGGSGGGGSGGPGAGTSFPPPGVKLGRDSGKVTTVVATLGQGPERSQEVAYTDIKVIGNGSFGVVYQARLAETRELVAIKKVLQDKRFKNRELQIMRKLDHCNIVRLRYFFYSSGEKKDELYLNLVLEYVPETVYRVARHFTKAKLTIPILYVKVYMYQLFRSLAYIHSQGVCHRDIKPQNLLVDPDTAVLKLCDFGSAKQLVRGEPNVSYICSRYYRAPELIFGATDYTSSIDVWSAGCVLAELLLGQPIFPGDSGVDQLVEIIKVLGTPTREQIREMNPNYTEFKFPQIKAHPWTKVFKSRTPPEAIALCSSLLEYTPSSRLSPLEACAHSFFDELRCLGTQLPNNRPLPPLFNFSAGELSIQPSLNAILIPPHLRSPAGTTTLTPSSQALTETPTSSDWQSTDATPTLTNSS
# physchem = conditions: phosphate buffered saline (PBS) with 1% DMSO, 23 °C, pH 7.4, aqueous buffer, kinetic from dmso stock
# [6] = tested on: β-catenin nuclear translocation in U2-OS cells; assay: β-Catenin nuclear localization assay; type: cell-based
# Experimental: β-Catenin Nuclear Localization Assay
# U2-OS cells stably expressing two complimentary β-galactosidase fragments (one part on β-Catenin and the other constitutively expressed in the cell nucleus) were maintained in DMEM F12 supplemented with 10% FBS. When β-catenin translocates to the nucleus, the complimentary fragments form a complete β-galactosidase, the amount of which is then quantified by β-galactosidase activity (DiscoveRx). Cells were seeded in a 384-well CulturPlate (Perkin Elmer, Boston, Mass.) with 10,000 per well in 20 μL DMEM F12 containing 10% FCS, 100 U/ml penicillin and 100 μg/mL streptomycin. After overnight incubation at 37° C., cells were stimulated with 100 mL test compound/well and then returned to the incubator for 6 h. Cells were disrupted using 12 μL substrate-containing lysis buffer from the PathHunter Detection Kit in the formulation specified by the supplier (DiscoveRx). Plates were incubated in the dark for 1 h at room temperature before measurement of P3-galactosidase activity (luminescence) on an EnVision plate reader (PerkinElmer, Waltham, Mass.).
# [7] = tested on: phospho-Tau (Ser199) in SH-SY5Y cells; assay: Tau phosphorylation (Ser199) ELISA in SH-SY5Y cells; type: cell-based, human; conditions: Homo sapiens, SH-SY5Y, read-out: p-Tau (μM)
# Experimental: Tau Phosphorylation and Total Tau Assay
# SH-SY5Y cells were maintained in DMEM supplemented with 10% heat-inactivated FBS and 1% penicillin-streptomycin (Invitrogen) unless otherwise stated. ELISA kits for phospho-Tau (Ser199) and total Tau detection were purchased from Invitrogen (KHB0041, and KHB7041 respectively). Briefly, SH-SY5Y cells were seeded at 50,000 cells/200 μL/well in 96 well plates and after overnight incubation, treated with various doses of chemical compounds at 0.2 μL/well. The next day cells were washed with PBS twice before being lysed in 100 μL Lysis buffer/well. […]
# A standard protocol using an immunoassay kit to quantify total Tau protein and phospho-Tau (Ser199) protein in SH-SY5Y human neuroblastoma cells was employed. […]
# Well strips were warmed and inserted into the frame. […] Samples were loaded to each well that would be analyzed for total Tau, 85 μl standard diluent buffer and 15 μl cell lysate were added. To each well that will be analyzed for pTau (Ser199) 50 μl standard diluent buffer+50 μl cell lysate were added. […] Anti-total Tau was added to wells being analyzed for total Tau, anti-pTau (Ser199) was added to wells being analyzed for pTau (Ser199), and plates were tapped gently on the side to mix. […] Absorbance of each well was read at 450 nm (within 2 hours of adding stop solution).
# [8] = tested on: TCF/LEF reporter in HEK293-pBARL cells; conditions: read-out: TCF/LEF EC50
# Experimental: as §6, §7
# GSK3α [9] = biological target: T1, GSK3α; assay: biochemical
# SH-SY5Y cells = assay: Cellular toxicity in SH-SY5Y cells; conditions: highest testing concentration of 30 μM
# Experimental: Biochemical characterization of these synthesized compounds were assayed against GSK3β and CDK5/p25, with CDK5/p25 serving as a counter target of GSK3β selectivity. […] The effects of these compounds on survival of SH-SY5Y pathophysiology cells were also monitored.
# CDK2/CycE1 = CDK2/CycE1 (Homo sapiens (Human), UniProt P24941); assay: Carna Biosciences kinase assay, CDK2/CycE1; type: biochemical; conditions: read-out: % Inhibition at 10 μM, CDK2/CycE1
# Experimental: as §1, §2, §3, §4, §5
# GSK3β [10] = biological target: T2, GSK3β (Homo sapiens (Human), UniProt P49841); assay: biochemical
# T2 sequence (P49841 whole entry): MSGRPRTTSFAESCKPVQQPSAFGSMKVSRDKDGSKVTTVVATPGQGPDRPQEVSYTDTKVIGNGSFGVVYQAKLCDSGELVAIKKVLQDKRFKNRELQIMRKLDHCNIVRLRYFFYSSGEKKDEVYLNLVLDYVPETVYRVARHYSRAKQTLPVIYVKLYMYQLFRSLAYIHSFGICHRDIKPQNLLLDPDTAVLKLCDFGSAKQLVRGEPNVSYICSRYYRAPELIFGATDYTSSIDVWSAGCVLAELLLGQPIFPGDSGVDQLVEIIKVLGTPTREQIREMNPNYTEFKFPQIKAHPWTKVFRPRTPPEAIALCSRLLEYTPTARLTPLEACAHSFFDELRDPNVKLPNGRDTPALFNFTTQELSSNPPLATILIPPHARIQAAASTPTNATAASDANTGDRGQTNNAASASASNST
# Experimental: (§8) Human GSK3β as a GST fusion expressed in baculoviral system was purchased from BPS Bioscience (San Diego, Calif.). […] Reactions were incubated at room temperature for 60 minutes. 2.5 μL/well of ADP-Glo (Promega, V9103) was added with BioRAPTR, and incubated at room temperature for 40 minutes followed by addition of 5 μL/well of ADP-Glo detection reagent (Promega, V9103) with Combi nL (Thermo, Waltham, Mass.) and incubation at room temperature for 30 minutes. The plates were read on a ViewLux (PerkinElmer, Waltham, Mass.) for luminescence. Data were scaled using the positive and neutral controls and fitted for IC50 as described below.
# (§9) 100 mL/well compounds were pinned. […] Incubated at room temperature for 60 minutes. Added 20 μL/well of ADP-glo (Promega, V9103) with Combi, and incubated at room temperature for 40 minutes. Added 40 μL/well of ADP-glo (Promega, V9103) with Combi, incubated at room temperature for 30 minutes. Read on Envision for luminescence.
# GSK3β [11] = biological target: T2, GSK3β; assay: biochemical; remark: listed apart in the source
# in vitro = conditions: mouse, mouse plasma, pH 7.4
# Experimental: Plasma protein binding was determined by equilibrium dialysis using the Rapid Equilibrium Dialysis (RED) device (Pierce Biotechnology, Rockford, Ill.) for both human and mouse plasma. […] Compounds were incubated at 37° C. for 5 hours with a 250 rpm orbital shake.
# GSK3β [12] = biological target: T2, GSK3β
# Experimental: GSK3β Microfluidic Mobility-Shift Assay
# Reactions were terminated by the addition of 10 mM EDTA. Substrate and product were separated electrophoretically and fluorescence intensity of the substrate and product was determined by Labchip EZ Reader II (Caliper Life Sciences, MA). The kinase activity was measured as percent conversion. The reactions were performed in duplicate for each sample. […] The results were analyzed by Genedata Assay Analyzer. The percent inhibition was plotted against the compound concentration and the IC50 value was determined from the logistic dose-response curve fitting.
# PBS stability = type: physicochemical; conditions: 48 hours of incubation, acetonitrile recovery
# Experimental: Stability was determined in the presence of PBS pH 7.4 with 0.1% DMSO. Each compound was prepared in duplicate on six separate plates and allowed to equilibrate at room temperature with a 250 rpm orbital shake for 48 hours. One plate was removed at each time point (0, 2, 4, 8, 24, and 48 hours). […] Additionally, to the remaining material at each time point, acetonitrile was added to force dissolution of compound (to test for recovery of compound). An aliquot of this was also analyzed by UPLC-MS.
# panel of 311 kinases = assay: Kinome-wide selectivity profile (Carna Biosciences, 311 kinases); type: biochemical
# Experimental: as §1, §2, §3, §4
# GSK3β [13] = biological target: T2, GSK3β; conditions: read-out: IC50 ADP Glo GSK3β
# Experimental: as §8, §9
smiles,measurement,setting,value
"COc1ccccc1[C@@H]1C2=C(CC(C)(C)CC2=O)Nc2n[nH]c(C(F)(F)F)c21 [Compound 54, (R)-4-(2-methoxyphenyl)-7,7-dimethyl-3-(trifluoromethyl)-6,7,8,9-tetrahydro-2H-pyrazolo[3,4-b]quinolin-5(4H)-one]","stability in glutathione (GSH), % remaining",GSH stability,99%
same,inhibition at 10 µM,CDK2/CycA2,78.7%
same,Plasma stability % remaining (in mice),[1],99%
same,"Plasma protein binding % bound, human plasma",[2],93%
same,"fraction unbound at 5 h, 5 µM","[2]; human, pH 7.4, read-out: Plasma protein binding % bound, human plasma (converted)",0.07
same,Microsomal Stability (M:),[3],M: 0%
same,EC50,[4]; read-out: TCF/LEF (μM),4.8 µM
same,EC50,[4]; read-out: TCF/LEF EC50 (μM),5 µM
same,IC50,GSK3α [5],< 100 nM
same,solubility at 24 h,physchem,85 µM
same,EC50,"[6]; Homo sapiens, U2OS, read-out: beta-Catenin Translocation (μM)",5.28 µM
same,EC50,[6]; read-out: beta-Catenin translocation EC50,6.97 µM
same,IC50,[7],1.03 µM
same,EC50,[8],5350 nM
same,IC50,GSK3α [9],13 nM
same,cellular toxicity in SH-SY5Y cells,SH-SY5Y cells,no cellular toxicity
same,inhibition at 10 µM,CDK2/CycE1,73.5%
same,IC50,GSK3β [10],< 0.1 µM
same,IC50,GSK3β [10]; IC50 ADP Glo GSK3β (μM),0.02 µM
same,IC50,GSK3β [10]; IC50 against GSK3β at 7 μM ATP,0.024 µM
same,IC50,GSK3β [10]; IC50 against GSK3β at 100 μM ATP,0.143 µM
same,IC50,"GSK3β [10]; Target IC50 (nM), GSK3β",0.024 µM
same,IC50,GSK3β [11],12 nM
same,"fraction unbound at 5 h, 5 µM",in vitro,0.09
same,IC50,GSK3β [12],< 100 nM
same,"stability in PBS, % still present",PBS stability,more than 95%
same,% of the kinome (311 kinases) inhibited,panel of 311 kinases,2.6%
same,IC50,GSK3β [13],20 nM
